From patent US11542234B2, “2-alkoxy-6-[18F]fluoronicotinoyl substituted lys-c(O)-glu derivatives as efficient probes for imaging of PSMA expressing tissues” (Universität zu Köln, priority 2018, dated 2023)
Where two headings read alike, the source gives them in different places.

What was measured:
PSMA^+ LNCaP C4-2 cells = assay: Cellular uptake in PSMA positive LNCaP C4-2 cells; format: cell-based; conditions: for cellular uptake under inhibition with 2-PMPA: in the presence of 2-PMPA (100 μM/well)
Procedure: (§1) The PSMA specificity of the tracer uptake in LNCaP C4-2 was confirmed by complete inhibition with 2-PMPA (≤0.1% ID/10^5 cells). The enrichment of both tracers in PSMA^− PC3 cells was negligible (≤0.1% ID/10^5 cells).
(§2) PSMA^− PC-3 cells were cultured in RPMI-1640 medium supplemented with FBS (10%) and penicillin/streptomycin (1%). PSMA* LNCaP C4-2 cells were cultured in a mixture of DMEM: Ham's F-12K (Kaighn's) mediums (4:1) supplemented with FBS (5%), NaHCO3(3 g/L), insulin (5 μg/mL), triiodothyronine ([…]), transferrin (5 μg/mL), biotin (0.25 μg/ml) and adenine (25 μg/mL). Both cell lines were grown in 75 mL flasks containing 10 mL of the culture medium in a humidified atmosphere of 5% CO2/95% air at 37° C. for 4-5 days until they reached 80-90% confluency. Cells were seeded into 12-well plates (1×10^5 cells/well containing 1 mL medium) 24 h before the beginning of the cellular uptake experiments.
2-(Phosphonomethyl)pentanedioic acid (2-PMPA; 100 μM/well) was used for blocking studies. Thereafter, the cells were washed two times with medium (1 mL), trypsinized, harvested and the accumulated radioactivity was measured in a gamma counter (Wizard 1470, PerkinElmer, Massachusetts, USA). The cellular uptake of the novel PSMA-selective candidates and [^18F]DCFPyL obtained in experiments performed in parallel were compared. Each cellular uptake experiment was carried out in triplicate.

PSMA [1] = target: T1, PSMA (Rattus norvegicus, UniProt P70627); assay: PET study of PSMA-specific tracers in healthy rats; format: in vivo; conditions: for signal-to-noise ratio (SCG), printed in text with / SCG signal-to-noise ratio / SCG % ID / Bone % ID / Liver % ID: PET 60-120 min after injection; for SCG signal-to-noise ratio: background dorsal from cervical vertebral column
T1 construct: ganglia as natural PSMA-expressing tissues remain constant over a long time; from tissue; host or cells: healthy Long Evans rats in vivo
T1 sequence (P70627 whole entry): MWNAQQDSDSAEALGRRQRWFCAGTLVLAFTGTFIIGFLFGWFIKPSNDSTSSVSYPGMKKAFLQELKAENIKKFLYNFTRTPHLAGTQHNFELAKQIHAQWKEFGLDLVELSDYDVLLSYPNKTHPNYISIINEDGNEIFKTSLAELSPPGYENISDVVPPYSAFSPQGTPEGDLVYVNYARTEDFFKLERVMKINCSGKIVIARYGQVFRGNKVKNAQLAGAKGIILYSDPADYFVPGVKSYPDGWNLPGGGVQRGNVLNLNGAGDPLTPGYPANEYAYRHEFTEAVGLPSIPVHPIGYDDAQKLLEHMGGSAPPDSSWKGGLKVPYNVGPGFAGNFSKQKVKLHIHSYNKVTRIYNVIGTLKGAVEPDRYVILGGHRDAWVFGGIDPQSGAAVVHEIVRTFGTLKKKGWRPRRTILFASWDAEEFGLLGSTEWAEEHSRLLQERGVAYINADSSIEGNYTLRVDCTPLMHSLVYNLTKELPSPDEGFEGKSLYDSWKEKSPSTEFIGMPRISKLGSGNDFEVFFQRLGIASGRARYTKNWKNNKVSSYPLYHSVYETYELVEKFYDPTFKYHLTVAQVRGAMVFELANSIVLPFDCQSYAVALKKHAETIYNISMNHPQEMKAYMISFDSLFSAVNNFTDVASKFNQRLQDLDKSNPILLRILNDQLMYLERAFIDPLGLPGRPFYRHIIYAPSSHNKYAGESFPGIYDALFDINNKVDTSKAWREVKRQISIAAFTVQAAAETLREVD
Text: Ganglia represent an ideal tissue for the evaluation of PSMA binding imaging probes. Having a size of 1-2 mm these structures are sufficiently small to imitate metastases in a very early stage. Ganglionic PSMA is expressed by satellite glial cells, which envelop the neuronal cell bodies of the trigeminal ganglion,^[25] spinal dorsal root ganglia and ganglia of the autonomic nervous system.^[26] […] Rat PSMA comprises 752 amino acids (vs. 750 in humans), and has about 91% homology to the human PSMA. Importantly, all amino acid residues of the active site are essentially the same as those in the human homologue with the only exception of Gly^548 in the human and Ser^548 in the rat protein, respectively^[28]
Conditions: Uptake of different PSMA-specific tracers in healthy rats measured by PET. Conditions: PET scanner (Focus 220, Siemens); 57-71 MBq tracer was injected. PET scans started 60 min after injection and continued for 60 min. % ID was determined by dividing each image by the injected dose and multiplying it by body weight. […] Background activity for calculation of signal-to-noise ratio was measured dorsal from the cervical vertebral column with a 390 mm^3 VOI.
Animals: Experiments were carried out in accordance with the EU directive 2010/63/EU for animal experiments and the German Animal Welfare Act (TierSchG, 2006), and were approved by regional authorities (LANUV NRW). Long Evans rats (250-590 g body weight) were used for this study. Rats were housed in pairs in individually ventilated cages (NexGen EcoFlo, cages RAT1800 with 1805 cm^2 floor space and 41 cm height; Allentown Inc., Allentown, N.J., USA) under controlled ambient conditions (22±1° C. and 55±5% relative humidity) on an inversed 12 hour light/dark schedule (lights on 9:00 p.m.-9:00 a.m.). Food and water were available at all times. Three rats received two, and one rat received three different tracers. The other seven rats were measured with one tracer only. Each tracer was measured in three animals.
PET-imaging: Prior to PET measurements with PET probes, animals were anesthetized (initial dosage: 5% isoflurane in 02/air (3:7), then reduction to 2%), and a catheter for tracer injection was inserted into the lateral tail vein. Rats were placed on an animal holder (Medres, Cologne, Germany), and fixed with a tooth bar in a respiratory mask. Dynamic PET scans in a list mode were performed using a Focus 220 micro PET scanner (CTI-Siemens, Germany) with a resolution at a center of field of view of 1.4 mm. Data acquisition started with tracer injection (66±14 MBq in 0.5 mL i.v.), continued for 120 min and was followed by a 10 min transmission scan using a ^57Co point source. For blocking studies 2-(phosphonomethyl)pentanedioic acid (2-PMPA; 23 mg/kg) was added directly to a radiotracer solution. Breathing rate was monitored and kept around 60/min by adjusting isoflurane concentration (1.5-2.5%). Body temperature was maintained at 37° C. by a feedback-controlled system. Following Fourier rebinning, data were reconstructed using an iterative OSEM3D/MAP procedure78 including attenuation and decay correction in two different ways: 1) 28 frames (2×1 min; 2×2 min, 6×4 min, 18×5 min) for compilation of regional time activity curves; 2) 4 frames (4×30 min) for visual display. Resulting voxel sizes were always 0.38×0.38×0.79 mm.
Data analysis was performed using the software VINCI.79 Images were Gauss filtered (1 mm FWHM), and % ID was determined by dividing each image by the injected dose and multiplying the result by body weight times 100. Mean % ID values were extracted from each of the 28 frames and plotted over time.

PSMA [2] = target: T2, PSMA (Homo sapiens, UniProt Q04609); assay: Pilot PET/CT study in 10 patients, comparison with [68Ga]Ga-PSMA-HBED-CC; format: in vivo
T2 construct: from tissue; host or cells: patients with prostate cancer or biochemical recurrence, in vivo PET/CT
T2 sequence (Q04609 whole entry): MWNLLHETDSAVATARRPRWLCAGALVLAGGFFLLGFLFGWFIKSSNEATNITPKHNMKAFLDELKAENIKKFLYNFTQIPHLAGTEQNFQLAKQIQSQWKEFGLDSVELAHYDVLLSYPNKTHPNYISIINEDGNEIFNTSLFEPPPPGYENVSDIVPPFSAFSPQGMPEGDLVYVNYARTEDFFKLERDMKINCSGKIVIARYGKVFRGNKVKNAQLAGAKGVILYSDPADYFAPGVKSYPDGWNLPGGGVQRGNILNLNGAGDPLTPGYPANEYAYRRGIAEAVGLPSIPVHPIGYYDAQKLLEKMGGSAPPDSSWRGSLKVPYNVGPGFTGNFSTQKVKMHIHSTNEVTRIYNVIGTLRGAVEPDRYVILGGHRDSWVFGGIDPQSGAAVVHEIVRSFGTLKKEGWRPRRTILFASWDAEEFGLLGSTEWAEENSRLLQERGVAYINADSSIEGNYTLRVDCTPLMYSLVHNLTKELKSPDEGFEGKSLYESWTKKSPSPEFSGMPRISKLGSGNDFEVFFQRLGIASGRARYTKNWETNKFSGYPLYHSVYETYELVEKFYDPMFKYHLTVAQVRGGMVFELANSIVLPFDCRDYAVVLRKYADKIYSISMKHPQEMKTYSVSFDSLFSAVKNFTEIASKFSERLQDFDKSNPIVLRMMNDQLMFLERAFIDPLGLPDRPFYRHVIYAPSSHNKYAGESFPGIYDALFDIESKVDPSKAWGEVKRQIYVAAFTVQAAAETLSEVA
Procedure: Owing to the favorable imaging properties of 2-MeO-[^18F]PSMA in rats a small pilot study with this tracer in 10 patients was conducted. All patients were examined with both [^68Ga]Ga-PSMA-HBED-CC and 2-MeO-[^18F]PSMA PET CT. In each case, both PET/CT scans were carried out within three weeks. […] In four patients, at least one additional PSMA-positive lesion using 2-MeO-[^18F]PSMA compared to the corresponding [^68Ga]Ga-PSMA-HBED-CC image was identified (FIG. 6B). In one patient inconspicuous in the [^68Ga]Ga-PSMA-HBED-CC scan, a PSMA-positive lesion was discovered by 2-MeO-[^18F]PSMA PET/CT (FIG. 6C).
(§3) The study was conducted in accordance with the Institutional Review Board. All patients gave written informed consent to PET imaging and inclusion of their data in a retrospective analysis. All procedures were performed in compliance with the regulations of the responsible local authorities (District Administration of Cologne, Germany).
(§4) All measurements with [^68Ga]Ga-PSMA-HBED-CC and [^18F]-2-MeO-PSMA were carried out as described in the literature.^[14a, 15]

PSMA [3] = target: T2, PSMA; assay: PSMA-PET imaging of patients with biochemical recurrence of prostate cancer; format: in vivo; conditions: 124 patients with biochemical recurrence (BCR) of PCa
Procedure: In the subsequent larger study, 124 patients with biochemical recurrence (BCR) of PCa were examined.
as §3, §4

PSMA^− PC-3 cells = assay: Cellular uptake in PSMA negative PC3 cells; format: cell-based
Procedure: as §1, §2
The corresponding PSMA specific PET probe was added to the cells (100-150 kBq/well) and the cells were incubated at 37° C. for 1 and 2 h. 2-(Phosphonomethyl)pentanedioic acid (2-PMPA; 100 μM/well) was used for blocking studies. Thereafter, the cells were washed two times with medium (1 mL), trypsinized, harvested and the accumulated radioactivity was measured in a gamma counter (Wizard 1470, PerkinElmer, Massachusetts, USA). […]

[4] = meta-analysis of data of 251 patients, detecting recurrent PCa; cited from earlier work
PSMA [5] = target: T2, PSMA; conditions: determined earlier, for comparison; cited from earlier work
[6] = 2 h incubation, 2-MeO-[18F]PSMA and [18F]DCFPyL in parallel (FIG. 4A)
[7] = 4 h incubation, 2-MeO-[18F]PSMA and [18F]DCFPyL in parallel (FIG. 4A)
[8] = 2 h incubation, 4-MeO-[18F]PSMA and [18F]DCFPyL in parallel (FIG. 4B)
[9] = 4 h incubation, 4-MeO-[18F]PSMA and [18F]DCFPyL in parallel (FIG. 4B)
[10] = co-application of 2-PMPA (23 mg/kg)

For `COc1nc([18F])ccc1C(=O)NCCCC[C@H](NC(=O)N[C@@H](CCC(=O)O)C(=O)O)C(=O)O` [2-MeO-[^18F]PSMA], the cellular uptake (PSMA^+ LNCaP C4-2 cells; [6]) was 2.03±0.03 % ID/10^5 cells, the cellular uptake (PSMA^+ LNCaP C4-2 cells; [7]) was 3.31±0.01 % ID/10^5 cells and the “cellular uptake under inhibition with 2-PMPA” value (PSMA^+ LNCaP C4-2 cells) was at most 0.1 % ID/10^5 cells. For the same compound, the signal-to-noise ratio (SCG), printed in text with (PSMA [1]) was 8.2 ± 1.7, the SCG signal-to-noise ratio (PSMA [1]) was 8.2 ± 1.7 and the “SCG % ID” value (PSMA [1]; superior cervical ganglion) was 31.3±10.5 % ID. The “patients inconspicuous in the [68Ga]Ga-PSMA-HBED-CC scan in whom a PSMA-positive lesion was discovered” value (PSMA [2]) was “one”, the “patients with at least one additional PSMA-positive lesion compared to the corresponding [68Ga]Ga-PSMA-HBED-CC image” value (PSMA [2]; both PET/CT scans within three weeks) was “four” and the sensitivity (PSMA [3]) was 83.0%.

For `COc1cc([18F])ncc1C(=O)NCCCC[C@H](NC(=O)N[C@@H](CCC(=O)O)C(=O)O)C(=O)O` [4-MeO-[^18F]PSMA], the cellular uptake (PSMA^+ LNCaP C4-2 cells; [8]) was 0.79±0.04 % ID/10^5 cells, the cellular uptake (PSMA^+ LNCaP C4-2 cells; [9]) was 0.90±0.04 % ID/10^5 cells and the “cellular uptake under inhibition with 2-PMPA” value (PSMA^+ LNCaP C4-2 cells) was “completely blocked”. The “enrichment in PSMA^− PC3 cells” value (PSMA^− PC-3 cells) was “very low”, the “Bone % ID” value (PSMA [1]) was 19.2±2.1 % ID and the “Liver % ID” value (PSMA [1]) was 29.0±7.2 % ID. The SCG signal-to-noise ratio (PSMA [1]) was 4.6±1.3 and the “SCG % ID” value (PSMA [1]; superior cervical ganglion) was 14.4±2.6 % ID.

Work on `O=C(O)CC[C@H](NC(=O)N[C@@H](CCCCNC(=O)c1ccc([18F])nc1)C(=O)O)C(=O)O` [[^18F]DCFPyL] yielded a cellular uptake (PSMA^+ LNCaP C4-2 cells; [6]) of 1.55±0.05 % ID/10^5 cells, a cellular uptake (PSMA^+ LNCaP C4-2 cells; [8]) of 1.53±0.03 % ID/10^5 cells and a cellular uptake (PSMA^+ LNCaP C4-2 cells; [7]) of 3.1±0.03 % ID/10^5 cells. The cellular uptake (PSMA^+ LNCaP C4-2 cells; [9]) was 3.16±0.01 % ID/10^5 cells, the “uptake in the ganglion of the trigeminal nerve” value (PSMA [1]; 60-120 min after injection) was 37.9±9.9 % ID and the “Bone % ID” value (PSMA [1]) was 12.4 ± 4.3 % ID. The “Liver % ID” value (PSMA [1]) was 65.3 ± 21.7 % ID, the “Liver % ID” value (PSMA [1]; [10]) was “remained at the same level” and the “SCG % ID” value (PSMA [1]; [10]) was 4.6±1.8 % ID. The “SCG % ID” value (PSMA [1]; superior cervical ganglion) was 20.2 ± 5.8 % ID.

For `N[C@]1(C(=O)O)C[C@@H]([18F])C1` [[^18F]FACBC, anti-1-amino-3-[^18F]fluorocyclobutane-1-carboxylic acid], the sensitivity [4] is listed as 87% and the specificity [4] is listed as 66%.

With `O=C(O)CC[C@H](NC(=O)N[C@@H](CCCCNC(=O)[C@H](Cc1ccc2ccccc2c1)NC(=O)c1ccc(CNC(=O)[C@H](CCC(=O)O)NC(=O)[C@H](CCC(=O)O)NC(=O)c2ccc([18F])nc2)cc1)C(=O)O)C(=O)O` [[^18F]PSMA-1007] the “Bone % ID” value (PSMA [1]) was 33.2±9.5 % ID, the “Liver % ID” value (PSMA [1]) was 50.7 ± 4.3 % ID and the signal-to-noise ratio (SCG), printed in text with (PSMA [1]) was 6.2 ± 1.9. The SCG signal-to-noise ratio (PSMA [1]) was 6.2 ± 1.9.

With `O=C([O-])CN(CCN(CC(=O)[O-])Cc1cc(CCC(=O)NCCCCCC(=O)NCCCC[C@H](NC(=O)N[C@@H](CCC(=O)O)C(=O)O)C(=O)O)ccc1[O-])Cc1cc(CCC(=O)O)ccc1[O-].[68Ga+3].[OH3+]` [[^68Ga]Ga-PSMA-HBED-CC] the “Bone % ID” value (PSMA [1]) was 18.5 ± 0.6 % ID, the “Liver % ID” value (PSMA [1]) was 47.0 ± 10.3 % ID and the SCG signal-to-noise ratio (PSMA [1]) was 4.5±0.1. The SCG signal-to-noise ratio (PSMA [1]; listed as [^68Ga]PSMA-HBED-CC) was 4.5 ± 0.1, the “SCG % ID” value (PSMA [1]; superior cervical ganglion) was 41.0±3.4 % ID and the “SCG % ID” value (PSMA [1]; superior cervical ganglion, listed as [^68Ga]PSMA-HBED-CC) was 41.0 ± 3.4 % ID. For the same compound, the sensitivity (PSMA [5]) was 74.2%.
